Starred links: 1 amine or outer side, 2 acyl side, 3 side chain; linkers in the order of their positions; H or OH if unused. Positions of bridges follow the written chain, without caps; N, C: chain ends. Non-standard residues stand in square brackets, D forms with d. Residues, ends and D or L forms follow the SMILES beside them. ξ: configuration not given here. *: point of attachment. X35 = CC(C(N[*:1])C(=O)[*:2])N(Cc1ccc(O)cc1)Cc1ccc(O)cc1; X6 = CC(NC(=O)C12CC3CC(CC(C3)C1)C2)C(N[*:1])C(=O)[*:2]; X10 = CC(C)=CCC/C(C)=C/C(=O)NC(C)C(N[*:1])C(=O)[*:2]; X42 = CC(NC(=O)CNCc1ccccc1)C(N[*:1])C(=O)[*:2]; X22 = CC(NC(=O)[C@H](N)CO)C(N[*:1])C(=O)[*:2]; X40 = CC(NC(=O)CCN1CCNCC1)C(N[*:1])C(=O)[*:2]; X45 = CCN(CC)CCC(=O)NC(C)C(N[*:1])C(=O)[*:2]; ξAbu(βξ-NH2) = CC(N[*:3])C(N[*:1])C(=O)[*:2]; X21 = CC(=O)SCC(=O)NC(C)C(N[*:1])C(=O)[*:2]; X26 = COC(=O)CC(=O)NC(C)C(N[*:1])C(=O)[*:2]; X38 = CC(NC(=O)CCCN(C)C)C(N[*:1])C(=O)[*:2]; X23 = CC(NCc1ccc(O)cc1)C(N[*:1])C(=O)[*:2]; X20 = CC#CC(=O)NC(C)C(N[*:1])C(=O)[*:2]; X44 = CCNCC(=O)NC(C)C(N[*:1])C(=O)[*:2]; Pentadecanoyl = CCCCCCCCCCCCCCC(=O)*; ξAsp(βξ-Me) = CC(C(=O)O)C(N)C(=O)O; X27 = CCCCCCCC/C=C/CCCCCCCC(=O)*; ξAbu(3ξ-NH2) = CC(N)C(N)C(=O)O; NH(CH2)11CH3 = CCCCCCCCCCCCN*; Pip = O=C(O)[CH]1CCCCN1; ξD = NC(CC(=O)O)C(=O)O; ξPip = O=C(O)C1CCCCN1; CO = O=C([*:1])[*:2]; ξV = CC(C)C(N)C(=O)O; ξP = O=C(O)C1CCCN1

The first assay deals with Staphylococcus aureus (MSSA). Conditions: 24 h. Put shortly:
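Broth microdilution MIC per NCCLS M7-A6 with doubling serial dilutions, in cation-adjusted Mueller-Hinton broth supplemented with 0.625 mM calcium.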
The term MIC denotes the lowest concentration that inhibits growth of the organism. Regarding `CCCCCCCCCCCCCCC(=O)NC(CC(=O)O)C(=O)NC1C(=O)N2CCCCC2C(=O)NC(C(C)C(=O)O)C(=O)NC(CC(=O)O)C(=O)NCC(=O)NC(CC(=O)O)C(=O)NCC(=O)NC(C(C)NC(=O)/C=C(\C)CCC=C(C)C)C(=O)NC(C(C)C)C(=O)N2CCCC2C(=O)NC1C` (stereo not drawn) [Compound 224, C15-Amphomycin-9-Geranyl] (Pentadecanoyl-D[ξAbu(βξ-NH2)][Pip][ξAsp(βξ-Me)]DGDG[X10]VP; lactam 2-C; configuration not given here), the minimum inhibitory concentration (MIC) worked out at 8 µg/mL.

In the case of `CC#CC(=O)NC(C)C1NC(=O)CNC(=O)C(CC(=O)O)NC(=O)CNC(=O)C(CC(=O)O)NC(=O)C(C(C)C(=O)O)NC(=O)C2CCCCN2C(=O)C(NC(=O)C(CC(=O)O)NC(=O)CCCCCCCCCCCCCC)C(C)NC(=O)C2CCCN2C(=O)C(C(C)C)NC1=O` (stereo not drawn) [Compound 227, C15-Amphomycin-9-(2-Butynyl)] (Pentadecanoyl-D[ξAbu(βξ-NH2)][Pip][ξAsp(βξ-Me)]DGDG[X20]VP; lactam 2-C; configuration not given here), the MIC was found to be 32 µg/mL.

In the case of `CCCCCCCCCCCCCCC(=O)NC(CC(=O)O)C(=O)NC1C(=O)N2CCCCC2C(=O)NC(C(C)C(=O)O)C(=O)NC(CC(=O)O)C(=O)NCC(=O)NC(CC(=O)O)C(=O)NCC(=O)NC(C(C)NC(=O)CC(=O)OC)C(=O)NC(C(C)C)C(=O)N2CCCC2C(=O)NC1C` (stereo not drawn) [Compound 231] (Pentadecanoyl-D[ξAbu(βξ-NH2)][Pip][ξAsp(βξ-Me)]DGDG[X26]VP; lactam 2-C; configuration not given here), the MIC worked out at 8 µg/mL.

Regarding `CCCCCCCCCCCCCCC(=O)NC(CC(=O)O)C(=O)NC1C(=O)N2CCCCC2C(=O)NC(C(C)C(=O)O)C(=O)NC(CC(=O)O)C(=O)NCC(=O)NC(CC(=O)O)C(=O)NCC(=O)NC(C(C)NC(=O)C23CC4CC(CC(C4)C2)C3)C(=O)NC(C(C)C)C(=O)N2CCCC2C(=O)NC1C` (stereo not drawn) [Compound 232, C15-Amphomycin-9-(1-Adamantanylcarbonyl)] (Pentadecanoyl-D[ξAbu(βξ-NH2)][Pip][ξAsp(βξ-Me)]DGDG[X6]VP; lactam 2-C; configuration not given here), the MIC amounted to 4 µg/mL.

As to `CCCCCCCCCCCCCCC(=O)NC(CC(=O)O)C(=O)NC1C(=O)N2CCCCC2C(=O)NC(C(C)C(=O)O)C(=O)NC(CC(=O)O)C(=O)NCC(=O)NC(CC(=O)O)C(=O)NCC(=O)NC(C(C)NC(=O)CSC(C)=O)C(=O)NC(C(C)C)C(=O)N2CCCC2C(=O)NC1C` (stereo not drawn) [Compound 235, C15-Amphomycin-9-(S-Acetylthioglycolyl)] (Pentadecanoyl-D[ξAbu(βξ-NH2)][Pip][ξAsp(βξ-Me)]DGDG[X21]VP; lactam 2-C; configuration not given here), the MIC stood at 2 µg/mL.

Regarding `CCCCCCCC/C=C/CCCCCCCC(=O)NC(C)C1NC(=O)CNC(=O)C(CC(=O)O)NC(=O)CNC(=O)C(CC(=O)O)NC(=O)C(C(C)C(=O)O)NC(=O)C2CCCCN2C(=O)C(NC(=O)C(CC(=O)O)NC(=O)CCCCCCCCCCCCCC)C(C)NC(=O)C2CCCN2C(=O)C(C(C)C)NC1=O` (stereo not drawn) [Compound 238, C15-Amphomycin-9-Oleate] (Pentadecanoyl-D[ξAbu(βξ-NH2)][Pip][ξAsp(βξ-Me)]DGDG[ξAbu(βξ-NH2)](X27)VP; lactam 2-C; configuration not given here), the minimum inhibitory concentration (MIC) is 1 to 2 µg/mL.

For `CCCCCCCCCCCCCCC(=O)NC(CC(=O)O)C(=O)NC1C(=O)N2CCCCC2C(=O)NC(C(C)C(=O)O)C(=O)NC(CC(=O)O)C(=O)NCC(=O)NC(CC(=O)O)C(=O)NCC(=O)NC(C(C)NC(=O)CCN2CCNCC2)C(=O)NC(C(C)C)C(=O)N2CCCC2C(=O)NC1C` (stereo not drawn) [Compound 241] (Pentadecanoyl-D[ξAbu(βξ-NH2)][Pip][ξAsp(βξ-Me)]DGDG[X40]VP; lactam 2-C; configuration not given here), the MIC is 1 to 2 µg/mL.

Regarding `CCCCCCCCCCCCCCC(=O)NC(CC(=O)O)C(=O)NC1C(=O)N2CCCCC2C(=O)NC(C(C)C(=O)O)C(=O)NC(CC(=O)O)C(=O)NCC(=O)NC(CC(=O)O)C(=O)NCC(=O)NC(C(C)NC(=O)CCCN(C)C)C(=O)NC(C(C)C)C(=O)N2CCCC2C(=O)NC1C` (stereo not drawn) [Compound 242, C15-Amphomycin-9-(N,N′-Dimethyl-GABA)] (Pentadecanoyl-D[ξAbu(βξ-NH2)][Pip][ξAsp(βξ-Me)]DGDG[X38]VP; lactam 2-C; configuration not given here), the MIC fell in the range of 1 to 2 µg/mL.

In the case of `CCCCCCCCCCCCCCC(=O)NC(CC(=O)O)C(=O)NC1C(=O)N2CCCCC2C(=O)NC(C(C)C(=O)O)C(=O)NC(CC(=O)O)C(=O)NCC(=O)NC(CC(=O)O)C(=O)NCC(=O)NC(C(C)NC(=O)CNCC)C(=O)NC(C(C)C)C(=O)N2CCCC2C(=O)NC1C` (stereo not drawn) [Compound 243, C15-Amphomycin-9-(N-Ethyl-Gly)] (Pentadecanoyl-D[ξAbu(βξ-NH2)][Pip][ξAsp(βξ-Me)]DGDG[X44]VP; lactam 2-C; configuration not given here), the MIC fell in the range of 0.5 to 1 µg/mL.

Take `CCCCCCCCCCCCCCC(=O)NC(CC(=O)O)C(=O)NC1C(=O)N2CCCCC2C(=O)NC(C(C)C(=O)O)C(=O)NC(CC(=O)O)C(=O)NCC(=O)NC(CC(=O)O)C(=O)NCC(=O)NC(C(C)NC(=O)CNCc2ccccc2)C(=O)NC(C(C)C)C(=O)N2CCCC2C(=O)NC1C` (stereo not drawn) [Compound 245, C15-Amphomycin-9-(N-Benzyl-Gly)] (Pentadecanoyl-D[ξAbu(βξ-NH2)][Pip][ξAsp(βξ-Me)]DGDG[X42]VP; lactam 2-C; configuration not given here): the minimal inhibitory concentration (MIC) stood at 1 µg/mL.

Regarding `CCCCCCCCCCCCCCC(=O)NC(CC(=O)O)C(=O)NC1C(=O)N2CCCCC2C(=O)NC(C(C)C(=O)O)C(=O)NC(CC(=O)O)C(=O)NCC(=O)NC(CC(=O)O)C(=O)NCC(=O)NC(C(C)NC(=O)CCN(CC)CC)C(=O)NC(C(C)C)C(=O)N2CCCC2C(=O)NC1C` (stereo not drawn) [Compound 246, C15-Amphomycin-9-(N,N-Diethyl-β-Ala)] (Pentadecanoyl-D[ξAbu(βξ-NH2)][Pip][ξAsp(βξ-Me)]DGDG[X45]VP; lactam 2-C; configuration not given here), the MIC turned out to be 2 µg/mL.

As to `CCCCCCCCCCCCCCCCNC(=O)NC(CC(=O)O)C(=O)NC1C(=O)N2CCCCC2C(=O)NC(C(C)C(=O)O)C(=O)NC(CC(=O)O)C(=O)NCC(=O)NC(CC(=O)O)C(=O)NCC(=O)NC(C(C)N)C(=O)NC(C(C)C)C(=O)N2CCCC2C(=O)NC1C` (centres unmarked) [Compound 249, CH3—(CH2)15—NH—C(═O)-Amphomycin], the MIC was in the range of 2 to 4 µg/mL.

For `CCCCCCCCNC(=O)NC(CC(=O)O)C(=O)NC1C(=O)N2CCCCC2C(=O)NC(C(C)C(=O)O)C(=O)NC(CC(=O)O)C(=O)NCC(=O)NC(CC(=O)O)C(=O)NCC(=O)NC(C(C)N)C(=O)NC(C(C)C)C(=O)N2CCCC2C(=O)NC1C` (centres unmarked) [Compound 252, CH3—(CH2)7—NH—C(═O)-Amphomycin], the minimum inhibitory concentration (MIC) turned out to be 32 µg/mL.

For the compound `CCCCCCCCCCCCNC(=O)NCC(=O)NC(CC(=O)O)C(=O)NC1C(=O)N2CCCCC2C(=O)NC(C(C)C(=O)O)C(=O)NC(CC(=O)O)C(=O)NCC(=O)NC(CC(=O)O)C(=O)NCC(=O)NC(C(C)N)C(=O)NC(C(C)C)C(=O)N2CCCC2C(=O)NC1C` (stereo not drawn) [Compound 254, CH3—(CH2)11—NH—C(═O)-Gly-Amphomycin] ({NH(CH2)11CH3-CO}-GD[ξAbu(βξ-NH2)][Pip][ξAsp(βξ-Me)]DGDG[ξAbu(3ξ-NH2)]VP; lactam 3-C; configuration not given here), the minimal inhibitory concentration (MIC) was 2 to 4 µg/mL.

As to `CCCCCCCCCCCCCCC(=O)NC(CC(=O)O)C(=O)NC1C(=O)N2CCCCC2C(=O)NC(C(C)C(=O)O)C(=O)NC(CC(=O)O)C(=O)NCC(=O)NC(CC(=O)O)C(=O)NCC(=O)NC(C(C)NC(=O)[C@H](N)CO)C(=O)NC(C(C)C)C(=O)N2CCCC2C(=O)NC1C` (stereo partly drawn) [Compound 262, C15-Amphomycin-(D-Ser)] (Pentadecanoyl-[ξD][ξAbu(βξ-NH2)][ξPip][ξAsp(βξ-Me)][ξD]G[ξD]G[X22][ξV][ξP]; lactam 2-C), the MIC came out at 4 µg/mL.

With `CCCCCCCCCCCCCCC(=O)NC(CC(=O)O)C(=O)NC1C(=O)N2CCCCC2C(=O)NC(C(C)C(=O)O)C(=O)NC(CC(=O)O)C(=O)NCC(=O)NC(CC(=O)O)C(=O)NCC(=O)NC(C(C)NC(=O)[C@H](N)Cc2ccc(O)cc2)C(=O)NC(C(C)C)C(=O)N2CCCC2C(=O)NC1C` (stereo partly drawn) [Compound 263, C15-Amphomycin-(D-Tyr)], the MIC worked out at 32 µg/mL.

Regarding `CCCCCCCCCCCCCCC(=O)NC(CC(=O)O)C(=O)NC1C(=O)N2CCCCC2C(=O)NC(C(C)C(=O)O)C(=O)NC(CC(=O)O)C(=O)NCC(=O)NC(CC(=O)O)C(=O)NCC(=O)NC(C(C)NC(=O)[C@H](N)Cc2c[nH]c3ccccc23)C(=O)NC(C(C)C)C(=O)N2CCCC2C(=O)NC1C` (stereo partly drawn) [Compound 264, C15-Amphomycin-(D-Trp)], the minimum inhibitory concentration (MIC) turned out to be 8 µg/mL.

In the case of `CCCCCCCCCCCCCCC(=O)NC(CC(=O)O)C(=O)NC1C(=O)N2CCCCC2C(=O)NC(C(C)C(=O)O)C(=O)NC(CC(=O)O)C(=O)NCC(=O)NC(CC(=O)O)C(=O)NCC(=O)NC(C(C)NCc2ccc(O)cc2)C(=O)NC(C(C)C)C(=O)N2CCCC2C(=O)NC1C` (stereo not drawn) [Compound 266, C15-Amphomycin-9-(4-Hydroxybenzyl)] (Pentadecanoyl-D[ξAbu(βξ-NH2)][Pip][ξAsp(βξ-Me)]DGDG[X23]VP; lactam 2-C; configuration not given here), the minimum inhibitory concentration (MIC) was 8 to 16 µg/mL.

`CCCCCCCCCCCCCCC(=O)NC(CC(=O)O)C(=O)NC1C(=O)N2CCCCC2C(=O)NC(C(C)C(=O)O)C(=O)NC(CC(=O)O)C(=O)NCC(=O)NC(CC(=O)O)C(=O)NCC(=O)NC(C(C)N(Cc2ccc(O)cc2)Cc2ccc(O)cc2)C(=O)NC(C(C)C)C(=O)N2CCCC2C(=O)NC1C` (stereo not drawn) [Compound 267, C15-Amphomycin-9-N,N-di-(p-Hydroxybenzyl)] (Pentadecanoyl-D[ξAbu(βξ-NH2)][Pip][ξAsp(βξ-Me)]DGDG[X35]VP; lactam 2-C; configuration not given here): the MIC was found to be 8 µg/mL.

The same assay, now with this note: S. aureus (MSSA), CAMHB supplemented with 0.625 mM calcium, 24 hours at about 37° C.; a range = compound tested multiple times.
Regarding `CCCCCCCCCCCCCCC(=O)NC(CC(=O)O)C(=O)NC1C(=O)N2CCCCC2C(=O)NC(C(C)C(=O)O)C(=O)NC(CC(=O)O)C(=O)NCC(=O)NC(CC(=O)O)C(=O)NCC(=O)NC(C(C)NC(=O)CCCCC(C)=O)C(=O)NC(C(C)C)C(=O)N2CCCC2C(=O)NC1C` (centres unmarked) [Compound 237, C15-Amphomycin-9-(6-Oxoheptanoyl)], the minimal inhibitory concentration (MIC) came to 16 µg/mL.
